# Reference: patent US10265329B2, “Altering steroid metabolism for treatment of steroid-dependent disease” (THE CLEVELAND CLINIC FOUNDATION, priority 2015, dated 2019)
# Experiments:
# [1] = system: VCaP CRPC xenografts; test: VCaP CRPC xenograft growth under 5α-reduced Abi metabolites; assay type: in vivo; conditions: orchiectomized mice; i.p. daily up to 20 days; >30% growth
# Procedure: Male NSG mice, 6 to 8 weeks of age were obtained from the Cleveland Clinic Biological Resources Unit facility. All mouse studies were conducted under a protocol approved by the Cleveland Clinic Institutional Animal Care and Use Committee. 10^7 VCaP cells were injected subcutaneously with matrigel. […] Control groups were administered 0.15 mL 5% benzyl alcohol and 95% safflower oil solution via intraperitoneal injection every day. Tumor volume was measured every other day, and time to increase in tumor volume by 30% was determined (2 sequential increases). Mice were sacrificed at treatment day 20. The significance of the difference between treatment groups was assessed by Kaplan-Meier survival analysis using a log-rank test in SigmaStat 3.5.
# [2] = system: androgen-responsive gene expression (PSA); test: Stimulation of androgen-responsive gene expression by Abi metabolites (qPCR); assay type: cell-based, human; conditions: LAPC4 and LNCaP
# Procedure: Cells were starved with phenol red-free and serum free-medium for at least 48 h before treatment with the indicated drugs and/or androgens. RNA extraction and cDNA synthesis were performed with the GenElute Mammalian Total RNA miniprep kit (Sigma-Aldrich) and iScript cDNA Synthesis Kit (Bio-Rad, Hercules, Calif.) respectively. Quantitative PCR (qPCR) analysis was conducted in triplicate in an ABI 7500 Real-Time PCR machine (Applied Biosystems) using iTaq Fast SYBR Green Supermix with ROX (Bio-Rad) and primers for TMPRSS2, PSA and RPLPO, as described. Chang et al., Cell 154, 1074-1084 (2013). Accurate quantitation of each mRNA was achieved by normalizing the sample values to RPLPO and to vehicle-treated cells. 50 μg cell lysate was used for immunoblot with rabbit anti-SRD5A1 (Abnova) and mouse anti-β-actin (Sigma-Aldrich) antibodies.
# [3] = target: T1, 3βHSD (Homo sapiens, UniProt P14060); test: Conversion of [3H]-DHEA by 3βHSD to AD in prostate cancer cells (HPLC/TLC); assay type: cell-based; conditions: for 3βHSD inhibition activity relative to D4A: LNCaP, [3H]-DHEA to AD, 48 hours
# T1 construct: endogenous in cells; host or cells: LNCaP, VCaP
# T1 sequence (P14060 2-373 limits assumed): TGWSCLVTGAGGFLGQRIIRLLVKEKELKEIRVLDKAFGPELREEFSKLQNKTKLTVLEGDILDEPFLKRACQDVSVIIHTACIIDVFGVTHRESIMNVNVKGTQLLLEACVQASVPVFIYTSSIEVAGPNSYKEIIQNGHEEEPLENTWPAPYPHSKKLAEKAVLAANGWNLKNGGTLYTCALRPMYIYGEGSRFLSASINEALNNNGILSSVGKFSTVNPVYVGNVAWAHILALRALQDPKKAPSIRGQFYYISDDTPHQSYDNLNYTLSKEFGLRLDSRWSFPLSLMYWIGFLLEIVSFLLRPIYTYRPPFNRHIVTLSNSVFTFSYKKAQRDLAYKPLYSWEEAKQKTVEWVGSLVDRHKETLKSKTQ
# Procedure: Cell Line Metabolism: Cells were seeded and incubated in 12-well plates with 0.2 million cells/well for ˜24 h and then incubated with a mixture of radioactive ([^3H]-labeled) and non-radioactive androgens (final concentration, 100 nM; ˜1,000,000 cpm/well; PerkinElmer, Waltham, Mass.) at 37° C. Aliquots of medium were collected at the indicated times. Collected medium was treated with 1,000 units of β-glucuronidase (Helix pomatia; Sigma-Aldrich) at 65° C. for 2 h, extracted with 860 μL ethyl acetate:isooctane (1:1), and concentrated under nitrogen gas. Xenograft Metabolism: 10^7 LNCaP or VCaP cells were injected subcutaneously with Matrigel into surgically orchiectomized NSG mice that were implanted with 5 mg 90-day sustained-release DHEA pellets (Innovative Research of American, Sarasota, Fla.). Xenografts were harvested when they reached 1000 mm^3, minced, and cultured in DMEM with 10% FBS at 37° C. with mixture of radioactive ([^3H]-labeled) and non-radioactive androgens, or Abi, when they reached 1000 mm^3. Each xenograft was analyzed in triplicate in at least three independent experiments. Aliquots of medium were collected at the indicated times. Collected medium was treated with 1,000 units of β-glucuronidase at 65° C. for 2 h, extracted with 860 μL ethyl acetate:isooctane (1:1), and concentrated under nitrogen gas.
# Dried samples were reconstituted in 50% methanol and injected into the HPLC. Steroids and drug metabolites were separated on Kinetex 100×2.1 mm, 2.6 μm particle size C18 reverse-phase column (Phenomenex, Torrance, Calif.) using a methanol/water gradient at 30° C. […] Alternatively, dried samples were applied to plastic-backed silica gel plates and separated by thin-layer chromatography (TLC) using a mobile phase of 3:1 chloroform:ethyl acetate, followed by exposure of the plates to a phosphorimager screen and quantitated with a Storm model 860 phosphorimager (Applied Biosystems, Foster City, Calif.). […] Results are shown as mean±SD. […]
Compound,progression-free survival compared to control xenografts [1],induction of androgen-responsive gene expression [2],3βHSD inhibition activity relative to D4A [3],"potency relative to Abi at blocking conversion of [3H]-DHEA by 3βHSD to AD ([3]; LNCaP and VCaP cells, TLC and HPLC)"
"C[C@]12CC[C@@H](O)C[C@@H]1CC[C@@H]1[C@@H]2CC[C@]2(C)C(c3cccnc3)=CC[C@@H]12 [Compound 3α-OH-5α-Abi, 17-(3-pyridyl)-5α-androsta-16-ene-3α-ol]",no detectable effect,A lower level of induction,attenuation or loss,–
"C[C@]12CCC(=O)C[C@@H]1CC[C@@H]1[C@@H]2CC[C@]2(C)C(c3cccnc3)=CC[C@@H]12 [Compound 5α-Abi, 17-(3-pyridyl)-5α-androsta-16-ene-3-one]",significantly shortened progression-free survival,results in expression of androgen-responsive genes,attenuation or loss,–
"C[C@]12CCC(=O)C=C1CC[C@@H]1[C@@H]2CC[C@]2(C)C(c3cccnc3)=CC[C@@H]12 [Compound D4A, 17-(3-Pyridyl)androsta-4,16-dien-3-one]",–,–,–,approximately 10 fold
